# Reference: patent US8536132B2, “Lymphatic zip codes in tumors and pre-malignant lesions” (Sanford-Burnham Medical Research Institute, priority 2006, dated 2013)
# “Also recorded” adds a separate entry of the source. Ends that are not written are not given here. * marks the point of attachment. FITC = O=C1OC2(c3ccc(O)cc3Oc3cc(O)ccc32)c2ccc(NC(=S)*)cc21
# Columns and labels:
# [1] = test system: TRAMP PIN lesions; assay: In vivo phage homing to TRAMP pre-malignant (PIN) lesions; design: species or system mouse; conditions: phage clones tested in vivo individually
# Method: (§1) The following cell lines were maintained in DMEM supplemented with 10% FCS: C8161 human melanoma, MDA-MB-435 human breast cancer, KRIB human osteosarcoma, and human prostate cancer cells PPC1, DU145. LNCaP human prostate cancer cell line was grown in RPMI 1640 medium with 10 mM HEPES, 1 mM sodium pyruvate and 1.5 g/L sodium bicarbonate supplemented with 10% FCS. M12 human prostate cancer cell line was cultured in RPMI 1640 with 5 μg/ml insulin-transferrin-sodium selenite (ITS), 2.5 μg/ml fungizone, 50 μg/ml gentamycin, 0.2 μM dexamethasone, 10 ng/ml epidermal growth factor (EGF), and 5% FCS (Bae et al., 1998). To produce tumors, nude BALB/c and C56BL/6 mice were subcutaneously (C8161, KRIB, and PPC1) or orthotopically ([…], PPC1, DU145, M12, and LNCaP) injected with 1×10^6 tumor cells. Transgenic mouse tumor models included TRAMP prostate cancer, MMTV-PyMT breast cancer, and K14-HPV16 cervical cancer. To initiate cervical carcinogenesis, female K14-HPV16 mice (Arbeit et al., 1994) were treated with 17β-estradiol (E2; (Arbeit et al., 1996; Giraudo et al., 2004). Briefly, one-month-old virgin female transgenic (heterozygous K14-HPV16, 1203#1) and nontransgenic (FVB/n) mice were anesthetized with isoflurane, and continuous release pellets that deliver E2 at doses of 0.05 mg over 60 days (Innovative Research of America, Sarasota, Fla., USA) were implanted subcutaneously in the dorsal back skin. Subsequent pellets were implanted at 3 and 5 months of age for a total of 6 months of hormone treatment. K14-HPV16 mice were maintained in the FVB/n background (FVB/n; The Jackson Laboratory). The mice were maintained in accordance with the University of California, San Francisco (UCSF) institutional guidelines governing the care of laboratory mice. The animal experimentation was approved by Animal Research Committees at UCSF or The Burnham Institute.
# (§2) In vivo homing specificity of phage was tested as described (Hoffman, 2004). Briefly, mice bearing tumors were anesthetized and intravenously injected with 5×10^9 pfu of phage. After 7 min, the mice were perfused through the heart with PBS containing 0.5% BSA. The tumor and control organs were dissected from each mouse and the phage were rescued and tittered. For histology analysis, the mice were perfused with 4% PFA 30 min after the injection of phage. Tissues were embedded in Tissue-Tek O.C.T. and 5 μm sections were prepared for phage immunostaining.
# [2] = test system: cell suspension derived from pre-malignant prostate lesions; assay: Phage binding to cell suspension derived from pre-malignant prostate lesions; assay type: cell-based, mouse; conditions: phage clones
# Method: (§3) An NNK-encoded CX7C library display on T7Select415-1 phage (Novagen) was prepared as previously described (Laakkonen et al., 2002). Phage selection and validation have been described (Hoffman, 2004). A two-step procedure was designed for the selection of peptides targeting the tumor lymphatic vessels of pre-malignant prostate lesions and prostate tumor. First, the phage library was incubated with cells derived from normal prostate to subtract the phage that bind to normal prostate. Second, the anti-podoplanin magnetic beads were used to isolate lymphatic endothelial cells. 2-3 rounds of ex vivo selection and 2-3 rounds of in vivo selections were performed. For the ex vivo selections, cell suspensions were prepared from normal prostates of tumor-free littermates of TRAMP mice, pre-malignant prostates of 14- to 16-week-old TRAMP mice, and tumor tissues of 25- to 28-week-old TRAMP mice. Collagenase IA (1 mg/ml, Sigma) was used to disperse the tissues. About 1×10^7 normal prostate cells were incubated at 4° C. for 3 hrs with […] plaque forming units (pfu) of T7 phage displaying a CX7C peptide library. The samples were centrifuged at 1200 rpm for 10 min, the supernatant (the normal prostate-subtracted phage library) was recovered and then incubated overnight at 4° C. with 5×10^7 cells derived from pre-malignant prostate tissue or prostate tumor. The cells were washed to remove unbound phage, incubated with rat anti-mouse podoplanin for 45 min at 4° C., and washed three times with cold PBS containing 0.5% BSA. Podoplanin-positive cells were then isolated using M450 sheep anti-rat IgG Dynabeads (M450; Dynal, Oslo, Norway). Phage that bound to the podoplanin-positive cell population were rescued and amplified in E. coli. In vivo phage library screening was performed as described (Laakkonen et al., 2002).
# [3] = molecular target: T1, CXCR4 (Homo sapiens, UniProt P61073); assay: Phage binding to CXCR4-transfected 293T cells; conditions: 293T cells
# T1 construct: expressed in transfected cells; host or cells: 293T cells, transient transfection with FuGene 6
# Method: (§4) The 293T cells were transfected with plasmids encoding CXCR4 (Helbig et al., 2003) or VEGFR2 (Borges et al., 2000) using FuGene 6 transfection reagent (Roche Diagnostics, Indianapolis, Ind.). Briefly, plasmid (10 μg) was mixed with 900 μl of serumfree DMEM and 50 μl of FuGene and incubated for 15 min at room temperature before adding the mixture to the cells. The cells were detached using EDTA after 48 hrs post transfection and washed with PBS containing 1% BSA. Phage (5×10^9 pfu) were incubated with the transfected cells and bound phage were rescued and titrated. For competitive binding assay, the cognate peptide (150 μg/ml) or antibody (50 μg/ml) was added during incubating of the phage with cells. Targeted proapoptotic peptide treatment of tumor-bearing mice Prostate cancer model. Orthotopic xenografted prostate tumors were established by injecting 1×10^6 PPC1 human prostate cancer cells into the mouse prostate. Fifteen days post inoculation, the mice were intravenously injected with D(KLAKLAK)2-CREAGRKAC (SEQ ID NO:41), an equimolar mixture of D(KLAKLAK)2 (SEQ ID NO:19) and CREAGRKAC (SEQ ID NO:6), or PBS. Biweekly injections of 100 μg/dose/mouse were given for three weeks. Melanoma model. Nude BALB/c mice were subcutaneously injected with 1×10^6 C8161 human melanoma cells. Treatment started when mean tumor volumes reached about 100 mm3. Mice with size-matched tumors were randomized into three groups. The therapeutic group received a chimera of tumor homing peptide with the proapoptotic motif (D(KLAKLAK)2-CLSDCGKRKC; SEQ ID NO:42). The control groups received an equimolar mixture of CLSDGKRKC (SEQ ID NO:4) and D(KLAKLAK)2 (SEQ ID NO:19), or PBS alone. The tumor-bearing mice were intravenously injected with 200 μg/dose/mouse once a week for three weeks. The mice were monitored for weight loss, and tumors were dissected and weighed at the termination of the experiment. Histological analysis was performed to evaluate the density of tumor lymphatics and blood vessels. The animal experiments reported here were approved by The Burnham Institute Animal Research Committee.
# [4] = test system: MDA-MB-435 orthotopic xenografts; assay: In vivo phage homing to MDA-MB-435 orthotopic xenografts; design: species or system mouse; conditions: for phage homing to MDA-MB-435 tumors (in words): i.v. injected phage
# Method: as §1, §2
# [5] = test system: K14-HPV16 skin cancer; assay: In vivo homing to K14-HPV16 skin cancer; design: species or system mouse; conditions: i.v. injection, K14-HPV16 mice
# Method: as §1, §2
# [6] = test system: K14-HPV16/E2 cervical tumors; assay: In vivo phage homing to K14-HPV16/E2 cervical tumors; design: species or system mouse; conditions: for phage homing to K14-HPV16/E2 cervical tumors (in words): i.v. injected phage
# Method: as §1, §2
# [7] = test system: normal tissues; assay: In vivo phage homing to normal and control tissues; design: species or system mouse; conditions: i.v. injected phage
# Method: as §2
# [8] = test system: tumor derived cell suspensions (TRAMP); assay: Phage binding to TRAMP tumor derived cell suspensions; assay type: cell-based, mouse; conditions: phage clones
# Method: as §3
# [9] = test system: TRAMP prostate tumors; assay: In vivo phage homing to TRAMP prostate tumors; design: species or system mouse; conditions: i.v. injected phage clone
# Method: as §1, §2
# [10] = test system: C8161 xenografts; assay: In vivo phage homing to C8161 xenograft tumors; design: species or system mouse; conditions: i.v. injected phage, C8161 xenograft mice
# Method: as §1, §2
# [11] = test system: cell suspensions prepared from C8161 tumors; assay: Phage binding to cell suspensions prepared from C8161 tumors; assay type: cell-based, mouse; conditions: phage clone, ex vivo
# [12] = test system: K14-HPV16/E2 cervical dysplasia; assay: In vivo phage homing to K14-HPV16/E2 cervical dysplasia (CIN-3); design: species or system mouse; conditions: for phage homing to K14-HPV16/E2 pre-malignant cervical lesions (in words): i.v. injected phage
# Method: as §1, §2
# [13] = test system: PPC1 orthotopic xenografts; assay: Targeted proapoptotic peptide treatment of mice with PPC1 orthotopic xenografts; assay type: in vivo; conditions: 100 μg/dose/mouse biweekly i.v., three weeks
# Method: as §4
# [14] = test system: K14-HPV16/E2 cervical lesions; assay: Distribution of fluorescent peptides in K14-HPV16/E2 mice with cervical lesions; assay type: in vivo, mouse; conditions: for fluorescent peptide in normal cervix and control tissues: 100 μg i.v., 2 hrs; for fluorescent peptide in K14-HPV16/E2 cervical lesions/tumors (in words): labeled peptide i.v.
# Method: The frozen sections were prepared for immunohistological analysis.
# [15] = phage homing in vivo, K14-HPV16/E2 cervical dysplasia
# [16] = phage homing in vivo, MDA-MB-435 orthotopic xenografts
# [17] = phage homing in vivo, K14-HPV16/E2 cervical cancer / cervical tumors
# [18] = listed as Fluoresceinlabeled LyP-2 peptide
# T1 sequence (P61073 whole entry, species assumed): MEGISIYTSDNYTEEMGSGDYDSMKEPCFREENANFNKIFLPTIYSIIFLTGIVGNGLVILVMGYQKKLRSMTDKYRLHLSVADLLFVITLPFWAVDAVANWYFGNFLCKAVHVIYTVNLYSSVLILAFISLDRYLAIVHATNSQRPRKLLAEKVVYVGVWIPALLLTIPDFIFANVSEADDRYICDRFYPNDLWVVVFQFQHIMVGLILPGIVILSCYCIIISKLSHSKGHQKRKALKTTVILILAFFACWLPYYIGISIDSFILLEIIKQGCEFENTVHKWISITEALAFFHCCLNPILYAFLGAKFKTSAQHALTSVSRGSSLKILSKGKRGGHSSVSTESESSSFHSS
substance,measurement,setting,value
CASLSCR,enrichment to pre-malignant TRAMP lesions relative to nonrecombinant phage,[1],12 fold
same,binding to cell suspension from pre-malignant prostate lesions (in words),[2],bound
"CGNKRTRGC [LyP-1, previously described lymphatic homing peptide recognizing breast cancer lymphatics and tumor cells, reference compound]",phage binding to CXCR4-transfected 293T cells (in words),[3],did not bind
same,phage homing to MDA-MB-435 tumors (in words),[4],homes to the MDA-MB-435 tumors
same,phage homing to MDA-MB-435 tumors (in words),[4]; listed as LyP-1 phage,homed to MDA-MB-435 tumors
same,homing to K14-HPV16 skin cancers (in words),[5],homed to the K14-HPV16 skin cancer lymphatics
same,phage homing to K14-HPV16/E2 cervical tumors (in words),[6],not to the cervical tumors
same,phage homing to normal breast tissue,[7],Neither phage homed
same,phage homing to normal cervix,[7],Neither phage homed
CKTRVSCGV,binding to TRAMP tumor derived cell suspensions (in words),[8],robust binding
same,enrichment in TRAMP tumors relative to nonrecombinant phage,[9],about 30 fold
CLDGGRPKC,phage homing to C8161 tumors (in words),[10],homed selectively to the tumors
same,binding to cell suspensions prepared from C8161 tumors (in words),[11],bound to cell suspensions prepared from C8161 tumors
"CNRRTKAGC [LyP-2, homing peptide from K14-HPV16 dysplastic skin lesions; homes to cervical lesion lymphatics]",phage homing to K14-HPV16/E2 pre-malignant cervical lesions (in words),[12],homes to the cervical cancers and pre-malignant lesions
same,phage homing to K14-HPV16/E2 pre-malignant cervical lesions (in words),[12]; listed as LyP-2 phage,Significantly more; also recorded: robust homing
same,Fold over control phage,[12]; [15],17 fold
same,Specific Homing,[12]; [15],Yes
same,Fold over control phage,[4]; [16],3 fold
same,Specific Homing,[4]; [16],No
same,homing to K14-HPV16 skin cancers (in words),[5],homed to the lymphatics associated with dysplasias and squamous cell carcinomas in the skin; also recorded: homed to the K14-HPV16 skin cancer lymphatics
same,phage homing to K14-HPV16/E2 cervical tumors (in words),[6],homes to the cervical cancers and pre-malignant lesions
same,phage homing to K14-HPV16/E2 cervical tumors (in words),[6]; listed as LyP-2 phage,Significantly more; also recorded: robust homing
same,Fold over control phage,[6]; [17],22 fold
same,Specific Homing,[6]; [17],Yes
same,phage homing to normal breast tissue,[7],Neither phage homed
same,phage homing to normal cervix,[7],Neither phage homed
same,phage homing to normal cervix,[7]; listed as LyP-2 phage,not to normal cervix
CSGGKVLDC,enrichment to pre-malignant TRAMP lesions relative to nonrecombinant phage,[1],14 fold
same,binding to cell suspension from pre-malignant prostate lesions (in words),[2],bound
CSMSAKKKC,binding to TRAMP tumor derived cell suspensions (in words),[8],robust binding
same,enrichment in TRAMP tumors relative to nonrecombinant phage,[9],about 30 fold
D(KLAKLAK)2-CREAGRKAC (KLAKLAKKLAKLAKCREAGRKAC) [chimera of REA homing peptide with the pro-apoptotic motif D(KLAKLAK)2],number of tumor lymphatics (podoplanin staining),[13],greatly reduced
same,tumor blood vessel count/density (MECA-32 staining),[13],unaffected
same,tumor volume / tumor growth,[13],unaffected
same,number of tumor lymphatics (podoplanin staining),[13]; listed as REA conjugate,reduced the number of tumor lymphatics
same,tumor blood vessel count/density (MECA-32 staining),[13]; listed as REA conjugate,no effect
same,tumor volume / tumor growth,[13]; listed as REA conjugate,no effect
FITC-LyP-2: fluorescein-labeled LyP-2 peptide (CNRRTKAGC) ({FITC}-CNRRTKAGC; cysteine pairing not given here),fluorescent peptide in normal cervix and control tissues,[14],Little or no fluorescence
same,fluorescent peptide in normal cervix and control tissues,[14]; [18],No peptide accumulation was observed
same,overlap with podoplanin in cervical lesions,[14]; fluorescein-labeled peptide,82%
same,co-localization with MECA-32,"[14]; fluorescein-labeled peptide, cervical lesions",not with MECA-32
same,fluorescent peptide in K14-HPV16/E2 cervical lesions/tumors (in words),[14]; [18],accumulated in the cervical lesions
same,fluorescent peptide in K14-HPV16/E2 cervical lesions/tumors (in words),[14]; listed as fluorescein labeled-LyP-2 peptide,homes to cervical carcinoma
